Data taken from US20060165840A1, “Fish feed” (Norsk Hydro ASA, priority 2002, published 2006).
“Also recorded” adds a separate entry of the source.

Assay: Oxidative stability of salmon oil, induction period in weight increase experiment
Conditions: salmon oil from fresh raw materials, antioxidant added to oil, versus control oil without additions
Protocol: The oil stability was measured as the induction period (in days) in weight increase experiment. Oil A is salmon oil with 200 ppm d-α-tocopherol. Oil E is the control without additions.
To a sample of fresh fish oil prepared by gentle processing of fresh salmon filleting by-products (viscera, heads, framebones), we added 200 ppm vitamin E consisting of 89-99% d-α-tocopherol and 1-11% (β+γ+δ)-tocopherols (according to product specification), and a mixture of other/synergistic.
To another sample of the oil, we added 200 ppm vitamin E consisting of 14% d-α-tocopherol, 1% d-β-tocopherol, 62% d-γ-tocopherol and 23% d-δ-tocopherol, and a mixture of other/synergistic antioxidants similar to what was given to the first sample.
The oxidative stability of the three oils were tested by subjecting 3.0 g samples in 6.0 cm glass petri dishes to a temperature of 35° C. while exposed to air. The oxygen uptake caused by oxidation was recorded as a rapid weight increase of the samples when their antioxidative resistance was broken down, after an initial induction time (IP).

Q: With `Cc1c(C)c2c(c(C)c1O)CC[C@@](C)(CCC[C@H](C)CCC[C@H](C)CCCC(C)C)O2` [d-α-tocopherol] as the compound, how does the “oil stability measured as induction period” value read?
A: weakly prooxidant effects; also recorded: did not increase stability, but gave instead a small prooxidant effect
